In patent publication US20250024871A1, “AMIDE COMPOUNDS AND THEIR USE AS FLAVOR MODIFIERS” (Firmenich Incorporated, priority 2021, published 2025):

Molecular target: T1, T1R umami taste receptor (Homo sapiens, UniProt Q7RTX0+Q7RTX1)
T1 sequence (Q7RTX1 21-841): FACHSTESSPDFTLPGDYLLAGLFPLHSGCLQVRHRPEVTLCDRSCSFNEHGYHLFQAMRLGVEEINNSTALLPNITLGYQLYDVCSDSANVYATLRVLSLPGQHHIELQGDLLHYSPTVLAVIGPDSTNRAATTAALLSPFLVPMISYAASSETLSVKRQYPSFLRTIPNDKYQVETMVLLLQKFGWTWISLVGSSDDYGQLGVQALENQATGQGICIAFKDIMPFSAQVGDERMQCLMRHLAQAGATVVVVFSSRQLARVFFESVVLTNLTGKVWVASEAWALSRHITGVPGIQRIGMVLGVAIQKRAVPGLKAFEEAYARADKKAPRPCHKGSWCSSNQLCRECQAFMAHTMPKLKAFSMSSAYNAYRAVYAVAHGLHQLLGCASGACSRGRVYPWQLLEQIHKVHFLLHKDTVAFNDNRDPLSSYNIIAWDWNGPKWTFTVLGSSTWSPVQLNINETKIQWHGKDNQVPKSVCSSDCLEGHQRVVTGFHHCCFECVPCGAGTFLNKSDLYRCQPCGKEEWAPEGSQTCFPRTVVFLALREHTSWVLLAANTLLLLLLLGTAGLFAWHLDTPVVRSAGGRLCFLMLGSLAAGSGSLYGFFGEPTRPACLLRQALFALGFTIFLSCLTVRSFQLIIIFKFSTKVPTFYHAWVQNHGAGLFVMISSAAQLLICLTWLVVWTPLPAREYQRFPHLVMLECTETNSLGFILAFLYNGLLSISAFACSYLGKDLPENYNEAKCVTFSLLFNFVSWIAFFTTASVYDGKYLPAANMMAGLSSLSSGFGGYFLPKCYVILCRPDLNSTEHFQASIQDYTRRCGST
T1 sequence (Q7RTX0 21-852): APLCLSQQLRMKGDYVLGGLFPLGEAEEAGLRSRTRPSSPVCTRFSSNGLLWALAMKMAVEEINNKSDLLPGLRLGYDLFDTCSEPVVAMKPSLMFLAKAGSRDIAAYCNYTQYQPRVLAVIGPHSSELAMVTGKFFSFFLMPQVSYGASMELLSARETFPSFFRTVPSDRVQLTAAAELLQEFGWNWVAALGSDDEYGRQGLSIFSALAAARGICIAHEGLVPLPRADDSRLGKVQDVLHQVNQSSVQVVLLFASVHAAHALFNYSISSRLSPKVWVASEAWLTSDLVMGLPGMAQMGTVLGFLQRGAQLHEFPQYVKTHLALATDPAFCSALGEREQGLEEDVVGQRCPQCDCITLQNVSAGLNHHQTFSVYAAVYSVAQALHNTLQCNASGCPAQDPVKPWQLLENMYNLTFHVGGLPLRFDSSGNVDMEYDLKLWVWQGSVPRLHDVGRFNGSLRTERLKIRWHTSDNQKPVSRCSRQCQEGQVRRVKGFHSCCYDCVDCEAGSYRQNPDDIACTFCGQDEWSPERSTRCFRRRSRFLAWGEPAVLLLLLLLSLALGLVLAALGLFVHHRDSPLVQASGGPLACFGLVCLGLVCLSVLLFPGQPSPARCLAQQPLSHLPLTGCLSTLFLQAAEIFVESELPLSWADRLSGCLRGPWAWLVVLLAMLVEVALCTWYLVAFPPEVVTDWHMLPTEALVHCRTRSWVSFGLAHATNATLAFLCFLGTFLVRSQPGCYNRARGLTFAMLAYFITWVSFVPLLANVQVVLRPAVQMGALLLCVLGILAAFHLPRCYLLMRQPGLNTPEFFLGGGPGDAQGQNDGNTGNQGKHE
Assay: in vitro cell-based assay having cells that express the T1R umami taste receptor (enhancement of MSG)
Conditions: for EC50: cells expressing T1R umami taste receptor, read-out: EC50 for enhancement of MSG binding
Procedure: Each of Compounds 101-183 was synthesized according to one of the general procedures set forth above in Examples 1. Thereafter, the compounds were tested in an in vitro cell-based assay having cells that express the T1R umami taste receptor. Dose-binding curves were recorded and the EC50 was determined for enhancement of MSG binding. Table 2 sets forth the calculated EC50 values for certain tested compounds as well as the MSG enhancement ratio at a particular concentration.

| Compound | EC50 [µM] | MSG Enh. Ratio (compound at 50 μM) | MSG Enh. Ratio (compound at 3 μM) | MSG Enh. Ratio (compound at 10 μM) |
| --- | --- | --- | --- | --- |
| CCOC(=O)CC[C@H](NC(=O)/C=C/c1ccc(O)cc1)C(=O)OCC [Compound 164, Diethyl (E)-(3-(4-hydroxyphenyl)acryloyl)-L-glutamate] | > 50 | 4.2 @ | – | – |
| C=C(C)C1CC=C(C(=O)N[C@@H](Cc2ccccc2)C(=O)OC)CC1 (stereo partly drawn) [Compound 166, Methyl (4-(prop-1-en-2-yl)cyclohex-1-ene-1-carbonyl)-L-phenylalaninate] | > 50 | 4.6 @ | – | – |
| C/C=C/C(=O)N[C@@H](Cc1ccccc1)C(=O)OC [Compound 167, Methyl (E)-but-2-enoyl-L-phenylalaninate] | > 50 | 2.1 @ | – | – |
| CCOC(=O)[C@H](CC(C)C)NC(=O)/C=C/C(C)C [Compound 169, Ethyl (E)-(4-methylpent-2-enoyl)-L-leucinate] | 12.9 | – | 4.2 @ | – |
| CCOC(=O)[C@H](CCSC)NC(=O)/C=C/C(C)C [Compound 170, Ethyl (E)-(4-methylpent-2-enoyl)-L-methioninate] | – | – | – | 3.5 @ |
| CCOC(=O)[C@@H](CC(C)C)NC(=O)/C=C/C(C)C [Compound 171, Ethyl (E)-(4-methylpent-2-enoyl)-D-leucinate] | 3.34 | – | 8.96 @ | – |
| CCOC(=O)[C@H](Cc1ccccc1)NC(=O)/C=C/C(C)C [Compound 172, Ethyl (E)-(4-methylpent-2-enoyl)-L-phenylalaninate] | – | – | – | 3.6 @ |
| COC(=O)CC[C@H](NC(=O)/C=C/C(C)C)C(=O)OC [Compound 173, Dimethyl (E)-(4-methylpent-2-enoyl)-L-glutamate] | > 50 | 3.1 @ | – | – |
| CCC/C=C/C(=O)N[C@H](C(=O)OC)[C@@H](C)CC [Compound 174, Methyl ((E)-hex-2-enoyl)-L-isoleucinate] | 30 | – | – | 3.6 @ |
| CCC/C=C/C(=O)N[C@H](C(=O)OCC)C(C)C [Compound 175, Ethyl (E)-hex-2-enoyl-L-valinate] | > 50 | 4.4 @ | – | – |
| CCC/C=C/C(=O)N[C@@H](Cc1ccccc1)C(=O)OC [Compound 176, Methyl (E)-hex-2-enoyl-L-phenylalaninate] | – | 8.4 @ | – | – |
| CCC/C=C/C(=O)N[C@@H](Cc1ccccc1)C(=O)OCC [Compound 177, Ethyl (E)-hex-2-enoyl-L-phenylalaninate] | ~40 | 8.8 @ | – | – |
| CCC/C=C/C(=O)N[C@@H](CCC(=O)OCC)C(=O)OCC [Compound 178, Diethyl (E)-hex-2-enoyl-L-glutamate] | > 50 | 5.6 @ | – | – |
| C/C=C/C=C/C(=O)N[C@H](C(=O)OCC)C(C)C [Compound 179, Ethyl ((2E,4E)-hexa-2,4-dienoyl)-L-valinate] | > 50 | 3.0 @ | – | – |
| C/C=C/C=C/C(=O)N[C@@H](Cc1ccccc1)C(=O)OCC [Compound 180, Ethyl ((2E,4E)-hexa-2,4-dienoyl)-L-phenylalaninate] | > 50 | 3.4 @ | – | – |
| C/C=C/C=C/C(=O)N[C@@H](CC(C)C)C(=O)OCC [Compound 181, Ethyl ((2E,4E)-hexa-2,4-dienoyl)-L-leucinate] | > 50 | 4.5 @ | – | – |
| C/C=C/C=C/C(=O)N[C@@H](CCC(=O)OCC)C(=O)OCC [Compound 182, Diethyl ((2E,4E)-hexa-2,4-dienoyl)-L-glutamate] | > 50 | 3.4 @ | – | – |
| C/C=C/C=C/C(=O)N[C@H](C(=O)OCC)[C@@H](C)CC [Compound 183, Ethyl ((2E,4E)-hexa-2,4-dienoyl)-L-isoleucinate] | > 50 | 2.8 @ | – | – |
